{"source": "patent US20180064662A1", "about": "(THE GENERAL HOSPITAL CORPORATION, priority 2015, published 2018)", "key": {"human pancreatic cancers": {"test_system": "human pancreatic cancers", "assay": "HA and collagen-I staining of human PDAC surgical samples, patients with or without metformin", "assay_type": "in vivo", "description": "Human samples of pancreatic cancer were obtained from the Massachusetts General Hospital tissue repository. Written informed consent from the donor or the next of kin was obtained for the use of these samples for research purposes. Tumors selected received no prior chemotherapy or radiation therapy before the surgical specimen was collected at the time of tumor resection. A total of 28 samples were randomly selected from this subset of samples. Body mass index was obtained for the respective sample. […] Paraffin sections were stained for collagen-I and HA as described below. Images were acquired using confocal microscopy and quantified using Matlab. Data were analyzed anonymously.\nFor analysis of frozen sections of mouse tumor tissues, the tumors were excised and frozen in optimal cutting temperature compound (Tissue-Tek). Transverse tumor sections, 10 μm thick, were immunostained with specific antibodies. To obtain mosaic images of tumor sections, an Olympus FV1000 confocal laser-scanning microscope was used. A 10× air objective acquired 1260-μm square tiles, and an automated stage scanned throughout the entire cross-section of tumor tissue. The imaged tiles were stitched into a final mosaic image using Olympus software. Antigen expression was quantified by measuring the area occupied by the stain of interest normalized by the area of DAPI-stained nuclei (i.e., unit less), and analyzed using a custom algorithm in MATLAB (The MathWorks). Identical settings and thresholds for analysis were used for all tumors. Antibodies used for immunofluorescence were the following: Collagen-I [LF-68 antibody, 1:50 dilution, provided by Dr Larry Fisher (NIDCR)]; Hyluronan (biotinylated hyaluronan proteoglycan fragment, 385911, Calbiochem, 1:200 dilution); αSMA (C6198 antibody, Sigma, 1:500 dilution); and F4/80 (MCA497A488 antibody, ABDserotec, 1:200 dilution). Cy3-, Cy5- or FITC-conjugated secondary antibodies were used for the detection of signals by confocal microscopy. Slides were counterstained with DAPI for nuclear staining."}, "[1]": {"test_system": "RAW 264.7 (mouse leukemic monocyte-macrophages)", "assay": "RAW 264.7 macrophages treated with metformin in vitro (qPCR, Western blot)", "assay_type": "cell-based", "description": "Following treatment, cells were collected for RNA and protein extraction in order to perform subsequent analysis of gene expression of cytokines and polarization markers, and for analysis of signaling and metabolic pathways. […] Cells were collected for protein extraction for analysis of the activation of fibrosis-related pathways. […] The cells were fixed with 4% paraformaldehyde and blocked with 5% normal donkey serum for 1 h. They were incubated with the designated primary antibodies overnight at 4° C. then for 2 h with the appropriate secondary antibodies at RT. PBS was used for all washes and the stained samples were mounted with Prolong Gold with DAPI. Images were acquired using a confocal microscope. The antibodies used and image acquisition settings are described below. Both cell types were grown in Dulbecco's modified Eagle's medium (Sigma, St. Louis, Mo.) supplemented with 5% (v/v) heat inactivated fetal bovine serum (FBS; Sigma), 100 units/ml penicillin and streptomycin. Cells were cultured at 37° C. in a humidified atmosphere including 5% CO2.\nImmediately following excision, tumor tissue was snap frozen and stored in liquid nitrogen. Total RNA was extracted and relative gene expression for macrophage M1/M2 markers was determined using a Sybr-green based standard protocol. In addition, total RNA was extracted and relative gene expression was determined using RT2 Profiler PCR Arrays system (Qiagen) on a Stratagene Mx3000P QPCR System using pre-made pathway-focused arrays (“Fibrosis”-Cat. Number: PAMM011Z; “Epithelial to Mesenchymal Transition (EMT)”-Cat. Number: PAMM090Z; “TGF-β signaling targets”-PAMM235Z; “Extracellular Matrix & Adhesion Molecules”-Cat. Number: PAMM013Z; and “Common cytokines ”-Cat. Number: PAMM021Z).\nEach tumor sample was homogenized directly in lysis buffer for protein extraction. 20 ug of denatured protein per sample was loaded on 7%, 10% and 12% SDS-polyacrylamide gels. Antibodies used: phospho-p38 MAPKT^180/Y182 and p38; phospho-JNK (SAPK/JNK)^Thr183/Tyr185 and JNK; phospho-AKT^Ser473 and AKT, phospho-ERK(p44/42 MAPK)^T202/Y204 and ERK; phospho-NF-κB^Ser536 and NK-κB; p65^Ser536; phospho-Smad2^Ser465/467 and Smad2; phospho-IGF-I Receptor β^Tyr1135 and IGF; Phospho-IRS-1^Ser612 and IRS; IR; phpspho-stat3^Tyr705 and stat3; Phospho-AMPKα^Thr172 and Ampkα; phospho-Ampkβ^Ser108 and Ampk; phospho-ACC^Ser79 and ACC; Phospho-PDGF Receptor β^Tyr751 and PDGF Receptor β and snail, c-cadherin and vimentin, TGF-β, β-catenin, twist, LC3B. […] Quantification of protein expression relative to total receptor or β-actin was obtained using Image J software."}, "pancreatic cancer": {"test_system": "pancreatic cancer", "conditions": "newly diagnosed pancreatic cancer cases, diabetic patients; cited from earlier work"}}, "data": [{"smiles": "CN(C)C(=N)N=C(N)N", "note": "[metformin, 3-(diaminomethylidene)-1,1-dimethylguanidine]", "values": [{"measurement": "collagen-I expression", "setting": "human pancreatic cancers; either body weight group", "result": "no impact"}, {"measurement": "levels of HA lower than in patients not taking metformin", "setting": "human pancreatic cancers; overweight or obese patients, chemo/radiotherapy naive PDAC surgical samples", "result": 30, "unit": "%"}, {"measurement": "HA levels", "setting": "human pancreatic cancers; patients of normal weight", "result": "no difference"}, {"measurement": "activation of AMPKα and ACC in macrophages", "setting": "[1]; ACC evident only in serum added media", "result": "activation of AMPKα"}, {"measurement": "activation of STAT3, JNK, AKT and p38 in macrophages", "setting": "[1]; concentrations lower than 0.2 mM, Western blot", "result": "reduced activation"}, {"measurement": "gene expression of M2 markers such as Arg-1 and IL-10", "setting": "[1]; metformin 0.05 mM, 48 h", "result": "reduced M2 markers"}, {"measurement": "gene expression of M1 and M2 markers", "setting": "[1]; metformin at doses higher than 0.2 mM", "result": "reduced both M1 and M2 markers"}, {"measurement": "reduced risk of death", "setting": "pancreatic cancer", "result": 32, "unit": "%"}]}]}
